Patent publication US20160367622A1, “AGONISTS OF GUANYLATE CYCLASE USEFUL FOR THE TREATMENT OF OPIOID INDUCED DYSFUNCTIONS” (priority 2013, published 2016)
Positions of bridges follow the written chain, without caps; N, C: chain ends. Non-standard residues stand in square brackets, D forms with d. No end group written: not given here.

Legend:
rat jejunum tissue = settings: for effect of inhibitor on SP-333-stimulated Isc / effect on 1 μM SP-333-stimulated Isc: rat jejunum; for effect of inhibitor on SP-333-stimulated Isc: inhibitor pretreatment 5 min, then 1 μM SP-333; for effect on SP-333 stimulation of Isc: rat jejunum tissue, opioid either pre or post SP-333 treatment; for effect on 1 μM SP-333-stimulated Isc: apical pre-treatment with 5 μM opioid for 5 min
T84 cells monolayer = settings: for effect on SP-333 stimulation of Isc: T84 cells monolayer, opioid either pre or post SP-333 treatment; for effect on 1 μM SP-333-stimulated Isc: apical pre-treatment with 5 μM opioid for 5 min
[1] = tested on: female Sprague-Dawley rats; assay: methadone-induced delay in rat GI transit (charcoal meal); assay type: in vivo
Protocol: (§1) Animals: All study procedures were conducted under a study outline approved by the Institutional Animal Care and Use Committee of MB Research Labs (Spinnerstown, Pa.) or Lampire Biological Laboratories (Pipersville, Pa.). Seven to eight week old female Sprague-Dawley rats [Crl:CD(SD)], weighing between ˜180-210 grams, were obtained from Charles River Laboratories and allowed to acclimate for a week. Animals were maintained on a 12 hour light-dark cycle. For intestinal tissue collection and evaluation of GI transit, rats were fasted for at least 18 hours before the experiment, with free access to water.
(§2) The ability of opioids to delay GI transit in rats was tested by either administering 0 (vehicle) 0.25, 1 and 2.5 mg/kg of morphine or 0 (vehicle), 0.25, 2.5 and 5 mg/kg of methadone (1.5 ml/kg dose volume) by IP injection. Water served as vehicle control. Ten minutes later, a 2 mL charcoal meal consisting of 10% activated charcoal (Sigma-Aldrich, St. Louis, Mo.) and 10% gum Arabic (Sigma-Aldrich, St. Louis, Mo.) in water was administered via oral gavage. Rats were euthanized 10 min after the charcoal meal via IP injection of 150 mg/kg Beuthanasia-D solution (sodium pentobarbital, 390 mg/mL). The small intestine was removed and the total length from the pyloric sphincter to the ileocecal junction was recorded, as well as the distance traveled by the leading edge of the charcoal. Intestinal transit was determined by calculating the ratio (expressed as a percentage) of the distance between the pyloric sphincter and the leading edge of the charcoal to the distance between the pyloric sphincter and the ileocecal junction.
To evaluate the ability of SP-333 to reverse methadone induced delayed GI transit, animals were administered 2.5 mg/kg of methadone by IP injection. Ten minutes later, an oral gavage of 0 (vehicle), 0.1, 0.5, 2.5, 5 and 50 mg/kg of SP-333 (1.5 ml/kg dose volume) was administered followed immediately by a 2 mL oral gavage of the charcoal meal. Ten minutes after the charcoal meal, animals were euthanized and intestinal transit was calculated as described above.

[2] = tested on: female Sprague-Dawley CD rats; assay: methadone-induced constipation in rats (fecal output); assay type: in vivo, rat; settings: for average number of fecal pellets over 4 h, lower compared to the vehicle group: light cycle
Protocol: To identify the methadone dose that induces constipation in rats, female Sprague-Dawley CD rats 7 to 8 weeks of age (n=6/group) were administered 0 (vehicle), 2.5, 5, and 7.5 mg/kg of methadone (1.5 ml/kg dose volume) by IP injection once a day for 5 days. Fecal pellets were collected at 4 h intervals during the light cycle and average number of pellets was recorded for each group during the course of the study following daily dose administrations of methadone.
To evaluate the ability of SP-333 to relieve methadone-induced constipation, female Sprague-Dawley CD rats 7 to 8 weeks of age (n=7/group) were administered 5 mg/kg of methadone (or vehicle) each day for 7 days via IP injection to induce constipation. Ten minutes following the IP dose each day, an oral gavage of 2.5, and 5 mg/kg of SP-333 or vehicle (buffer) was administered. Fecal pellets were collected at 4 h intervals during the light cycle and average number of pellets recorded for each group during the course of the study following daily administration of vehicle, methadone or combination of methadone and SP-333.

[3] = tested on: female Sprague-Dawley CD rats; assay: GI transit delay induced by repeated methadone administration in rats; assay type: in vivo, rat; settings: after 16 doses (once daily; 7 doses at 5 mg/kg and 9 doses at 2.5 mg/kg)
Protocol: The ability of SP-333 to alleviate GI transit delay induced by repeated methadone administration was also evaluated in the similar manner. Female Sprague-Dawley CD rats 7 to 8 weeks of age (n=7/group) received via IP injection 16 doses of methadone (once daily; 7 doses @ 5 mg/kg and 9 doses @ 2.5 mg/kg). Ten minutes following each methadone dose, each group received an oral gavage of vehicle, 2.5, and 5 mg/kg of SP-333. At the end of the dosing regimen, animals were fasted overnight and GI transit was evaluated as described above.

[4] = tested on: female Sprague-Dawley CD rats; assay: methadone-induced constipation in rats (fecal output); assay type: in vivo, rat
[5] = tested on: female Sprague-Dawley rats; assay: morphine-induced delay in rat GI transit (charcoal meal); assay type: in vivo; settings: for GI transit slowed compared to vehicle controls: rats
Protocol: as §1, §2
To evaluate the ability of SP-333 to reverse morphine induced delayed GI transit, animals were administered 2.5 mg/kg of morphine by IP injection followed immediately by oral gavage of 0 (vehicle), 0.5, 2.5, 5 and 50 mg/kg of SP-333 (1.5 ml/kg dose volume). Water served as vehicle control. Charcoal meal was administered ten minutes later and animals were euthanized ten minutes after the charcoal meal and intestinal transit was calculated as described above.

[6] = biological target: guanylate cyclase-C (GC-C) on T84 cells (human (T84, human carcinoma cell line), UniProt P25092 24-1073); assay: cell-based or functional assay
guanylate cyclase-C (GC-C) on T84 cells, sequence (P25092 24-1073): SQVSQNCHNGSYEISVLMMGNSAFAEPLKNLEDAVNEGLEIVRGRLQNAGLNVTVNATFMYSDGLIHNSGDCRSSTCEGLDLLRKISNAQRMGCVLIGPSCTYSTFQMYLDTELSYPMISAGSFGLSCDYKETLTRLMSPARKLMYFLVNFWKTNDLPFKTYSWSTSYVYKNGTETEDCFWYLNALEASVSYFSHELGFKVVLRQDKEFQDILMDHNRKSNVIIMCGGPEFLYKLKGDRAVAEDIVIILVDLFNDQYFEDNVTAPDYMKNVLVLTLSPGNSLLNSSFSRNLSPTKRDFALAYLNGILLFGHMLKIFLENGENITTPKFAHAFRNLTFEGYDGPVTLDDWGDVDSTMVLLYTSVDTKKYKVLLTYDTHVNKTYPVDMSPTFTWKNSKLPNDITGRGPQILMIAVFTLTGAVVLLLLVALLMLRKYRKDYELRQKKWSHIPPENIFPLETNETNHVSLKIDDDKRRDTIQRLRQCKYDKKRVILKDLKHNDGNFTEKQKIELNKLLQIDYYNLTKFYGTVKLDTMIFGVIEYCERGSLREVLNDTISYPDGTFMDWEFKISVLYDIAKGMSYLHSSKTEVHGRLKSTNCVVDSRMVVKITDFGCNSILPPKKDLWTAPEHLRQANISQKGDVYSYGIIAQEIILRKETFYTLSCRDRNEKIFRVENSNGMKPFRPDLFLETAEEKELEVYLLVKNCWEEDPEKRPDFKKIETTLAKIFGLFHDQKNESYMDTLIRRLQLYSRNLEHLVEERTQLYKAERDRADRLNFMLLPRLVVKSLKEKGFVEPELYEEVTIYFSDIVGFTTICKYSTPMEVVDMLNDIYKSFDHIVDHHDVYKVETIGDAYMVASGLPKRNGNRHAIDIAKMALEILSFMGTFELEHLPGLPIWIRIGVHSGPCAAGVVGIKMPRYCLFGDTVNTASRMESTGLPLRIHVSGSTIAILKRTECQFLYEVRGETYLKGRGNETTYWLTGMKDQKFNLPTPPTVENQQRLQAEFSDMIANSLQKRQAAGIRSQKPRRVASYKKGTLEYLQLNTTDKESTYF

[7] = biological target: T1, guanylate cyclase-C (GC-C) in rat jejunum (rat, UniProt P23897 23-1072); assay: cell-based or functional assay
T1 sequence (looked up): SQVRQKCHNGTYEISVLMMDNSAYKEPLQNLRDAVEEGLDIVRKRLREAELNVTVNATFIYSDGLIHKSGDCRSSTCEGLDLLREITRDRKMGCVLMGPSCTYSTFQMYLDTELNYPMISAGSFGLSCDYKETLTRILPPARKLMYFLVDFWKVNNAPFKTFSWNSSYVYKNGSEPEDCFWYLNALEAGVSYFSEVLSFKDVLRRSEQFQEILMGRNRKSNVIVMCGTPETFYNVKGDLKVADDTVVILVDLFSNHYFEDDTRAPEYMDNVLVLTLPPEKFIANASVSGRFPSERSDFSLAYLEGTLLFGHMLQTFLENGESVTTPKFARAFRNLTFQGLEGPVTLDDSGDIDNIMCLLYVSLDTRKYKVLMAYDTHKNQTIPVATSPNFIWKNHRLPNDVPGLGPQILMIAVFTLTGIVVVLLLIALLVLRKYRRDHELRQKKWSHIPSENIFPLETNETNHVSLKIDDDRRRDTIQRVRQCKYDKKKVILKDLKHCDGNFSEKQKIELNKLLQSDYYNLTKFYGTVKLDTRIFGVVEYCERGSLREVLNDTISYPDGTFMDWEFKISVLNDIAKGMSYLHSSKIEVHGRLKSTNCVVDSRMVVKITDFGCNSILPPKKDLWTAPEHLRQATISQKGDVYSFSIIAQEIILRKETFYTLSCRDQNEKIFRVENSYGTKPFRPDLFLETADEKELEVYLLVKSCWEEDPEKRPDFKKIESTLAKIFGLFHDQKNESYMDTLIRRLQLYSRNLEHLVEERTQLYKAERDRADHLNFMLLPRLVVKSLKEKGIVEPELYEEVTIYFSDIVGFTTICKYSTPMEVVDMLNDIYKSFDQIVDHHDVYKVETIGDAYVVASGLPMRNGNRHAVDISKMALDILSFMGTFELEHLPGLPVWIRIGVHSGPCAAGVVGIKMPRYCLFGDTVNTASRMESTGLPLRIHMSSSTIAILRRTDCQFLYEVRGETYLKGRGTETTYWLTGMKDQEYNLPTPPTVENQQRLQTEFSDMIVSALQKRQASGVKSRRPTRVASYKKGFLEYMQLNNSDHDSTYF

## O=C(O)c1ccc(/C=C2\SC(=S)N(c3cccc(C(F)(F)F)c3)C2=O)cc1 [CFTRinh172]
Rat jejunum tissue
  effect of inhibitor on SP-333-stimulated Isc: less compared to that detected in T84 cells
T84 cells monolayer; T84 cells, 10 μM inhibitor, vs 1 μM SP-333 alone
  suppression in SP-333-stimulated Isc: 80%

## Nc1ncnc2c1nc(Sc1ccc(Cl)cc1)n2[C@@H]1O[C@@H]2COP(=O)(O)O[C@H]2[C@H]1O [CPT-cAMP]
T84 cells monolayer
  stimulation of Isc across T84 cell monolayers: stimulate Isc

## Nc1nc2c(nc(Sc3ccc(Cl)cc3)n2[C@@H]2O[C@@H]3COP(=O)(O)O[C@H]3[C@H]2O)c(=O)[nH]1 [CPT-cGMP]
T84 cells monolayer
  stimulation of Isc across T84 cell monolayers: stimulate Isc

## [Cl][Cd][Cl] [CdCl2]
Rat jejunum tissue
  effect of inhibitor on SP-333-stimulated Isc: minimal effect
T84 cells monolayer; T84 cells, 300 μM, 1 μM SP-333
  decrease in SP-333-stimulated Isc: No appreciable decrease

## COC(=O)[C@@]1(OC)C[C@H]2O[C@]1(C)n1c3ccccc3c3c4c(c5c6ccccc6n2c5c31)C(=O)N(C)C4 [PKG-II inhibitor]
T84 cells monolayer; T84 cells, 4 μM inhibitor, 1 μM SP-333
  suppression of relative SP-333-stimulated Isc: approximately 35%

## CCC(=O)C(CC(C)N(C)C)(c1ccccc1)c1ccccc1 (stereo not drawn) [methadone]
Rat jejunum tissue
  effect on SP-333 stimulation of Isc: did not alter stimulation of Isc
  effect on 1 μM SP-333-stimulated Isc: no effect
[1]; 2.5 mg/kg methadone IP alone (vs 55% in vehicle treated)
  GI transit: 28%
[1]; 0.25, 2.5 and 5 mg/kg IP, rats
  GI transit: statistically significant reduction in GI transit
[2]; 2.5 mg/kg IP once daily for 5 days
  average number of fecal pellets over 4 h, lower compared to the vehicle group: 29%
[2]; 5 mg/kg IP once daily for 5 days
  average number of fecal pellets over 4 h, lower compared to the vehicle group: 77%
[2]; 7.5 mg/kg IP once daily for 5 days
  average number of fecal pellets over 4 h, lower compared to the vehicle group: 54%
[2]; methadone alone, 5.0 mg/kg IP daily 7 days then 2.5 mg on days 8-16
  average number of fecal pellets, less vs vehicle control: 82%
[3]
  rat small intestine transit: significantly delayed rat small intestine transit
[4]; 10 mg/kg IP once daily for 5 days, light cycle
  average number of fecal pellets over 4 h, lower compared to the vehicle group: 63%
[4]; methadone alone 2.5 mg/kg IP once daily for 9 days
  average number of fecal pellets: significant decrease in the average number of fecal pellets
T84 cells monolayer
  effect on SP-333 stimulation of Isc: did not alter stimulation of Isc
T84 cells monolayer; T84 cells
  effect on 1 μM SP-333-stimulated Isc: no effect
T84 cells monolayer; T84 monolayer, 1 μM SP-333 then opioid at 20 μM, FIG. 5B
  effect on SP-333 mediated enhancement in Isc: inhibited

## CN1CC[C@]23c4c5ccc(O)c4O[C@H]2[C@@H](O)C=C[C@H]3[C@H]1C5 [morphine]
Rat jejunum tissue
  effect on SP-333 stimulation of Isc: did not alter stimulation of Isc
  effect on 1 μM SP-333-stimulated Isc: negligible effect
[5]; 2.5 mg/kg morphine IP alone (vs 53% in vehicle treated)
  GI transit: 23%
[5]; single dose 0.25 mg/kg IP
  GI transit slowed compared to vehicle controls: 52%
[5]; single dose 1.0 mg/kg IP
  GI transit slowed compared to vehicle controls: 56%
T84 cells monolayer
  effect on SP-333 stimulation of Isc: did not alter stimulation of Isc
T84 cells monolayer; T84 cells
  effect on 1 μM SP-333-stimulated Isc: negligible effect

## [dN]DECELCVNVACTGC[dL] (disulfide 4-12, 7-15) [SP-333]
[6]
  EC50 of stimulation of Isc across T84 cells monolayer, apical treatment: 215 nM
[7]
  EC50 of stimulation of Isc across rat jejunum tissue, apical treatment: 287 nM
